The structures appear in SMILES notation. Some results are limits rather than exact numbers.

The values below come from patent publication US9346769B2, “Tetrazolones as inhibitors of fatty acid synthase” (Infinity Pharmaceuticals, Inc., priority 2010, dated 2016).

In this assay the target is T1, human FASN (Homo sapiens, UniProt P49327).
T1 construct: was purified from SKBR3 cells using procedures modified from those in Jayakumar et al; endogenous in cells; host or cells: SKBR3 human breast cancer cells (ATCC); Endogenous enzyme purified by ammonium sulfate precipitation and a mono Q column
Kind of assay: FASN Scintillation Proximity Flashplate Assay. Format: biochemical. Particulars: human FASN purified from SKBR3 cells; unstarred symbols. As to the method: Human FASN protein (SEQ ID NO. 1) was purified from SKBR3 cells using procedures modified from those in Jayakumar et al. PNAS 1995, 92:8695-8699. SKBR3 cells were obtained from ATCC and grown in DMEM high glucose medium supplemented with 10% FBS, 1 μg/mL bovine pancreas insulin, 100 U/mL penicillin and 100 µg/mL streptomycin. The confluent cells were trypsinized and washed three times with PBS buffer before frozen in liquid N2 and stored at −80° C. Frozen cells were thawed on ice and resuspended in lysis buffer (25 mM Tris-HCl, pH 7.0, 15 mM NaCl, 1 mM EDTA, and 1 mM DTT) with protease inhibitors. The cells were lysed by sonication, and the cell debris was removed by centrifugation at 20,000 rpm for 30 min. To the supernatant, neutralized saturated ammonium sulfate solution was added to a final concentration of 35%. The solution was left on ice for 1 hr, and the precipitated proteins were harvested by centrifugation at 20,000 rpm for 30 min. The proteins were redissolved in lysis buffer without NaCl and loaded on a mono Q column. Bound proteins were eluted with a linear gradient of NaCl in lysis buffer. Each fraction was analyzed by SDS-PAGE and FASN NADPH consumption assay. The fractions containing FASN were pooled and concentrated to 2-3 mg/mL. Glycerol was added to 20%, and the protein was frozen in liquid N2 and stored at −80° C.
Acetyl-coenzyme A, malonyl-coenzyme A, NADPH, bovine gamma globulin, and ORLISTAT were purchased from Sigma (St. Louis, Mo.). Tris(2-carboxyethyl) phosphine hydrochloride (TCEP) was purchased from Pierce Biotechnologies (Rockford, Ill.). [^3H]-acetyl-coenzyme A was purchased from Moravek Biochemicals (Brea, CA). FlashPlate™ PLUS phospholipid 96-well scintillant coated microplates were purchased from Perkin Elmer Life and Analytical Sciences (Shelton, CT). The method of the FASN Scintillation Proximity FlashPlate assay is similar to that described in Weiss and Glickman Assay Drug Dev Technol 2003, 1:161-6. In a 96-well polypropylene microplate, a dilution series (typical concentrations 60 nM-1.0 mM) of test compounds were prepared in DMSO followed by a 20-fold dilution into FASN assay buffer (50 mM potassium phosphate, pH 7.0, 1.0 mM EDTA, 0.01% NP-40), of which 5.0 μL each was transferred to a FlashPlate® PLUS 96-well plate and mixed with 35 μL FASN assay buffer plus 0.5 mg/mL bovine gamma globulin and 1 mM TCEP. FASN protein (10 μL, 10 nM) was added per well, and the microplate was incubated at 37° C. for 30 min. 10 μL of 20 mM NADPH was added, and the reaction was initiated by addition of […] substrate mixture to final concentrations of 1 nM FASN, 100 μM acetyl-coenzyme A, 6 μCi [^3H]-acetyl-coenzyme A, 300 μM malonyl-coenzyme A, 2 mM NADPH, 0.5 mg/mL bovine gamma globulin, and 1 mM TCEP in a volume of 100 μL per well. Assay plates were incubated for 2 hr at 37° C. and the reaction was stopped with 2 μL of 2.5 mM stock solution of ORLISTAT in DMSO to ˜50 μM. The plates were read in a Wallac 1450 Microbeta Plus liquid scintillation counter (Perkin Elmer, Waltham, Mass.), and counts per minute (CPM) were collected over 2 min. Each inhibitor well CPM was compared to the maximum FASN enzyme activity (Max) CPM and the background (Min) CPM, as measured by omission of FASN enzyme in the background well. % Inhibition values were calculated, and curves were fitted by a four-parameter logistic function to yield IC50 values:
Compounds were assayed as inhibitors of human FASN using the above-described FASN Scintillation Proximity Flashplate Assay (IC50; nM) or FASN NADPH Consumption Assay (*) (IC50; nM). The corresponding activity of the isolated compound is also provided along with the measured mass (ES^+).
For orientation: In a scintillation proximity assay essentially only radioactivity close to the scintillant gives light.

T1 sequence (P49327 whole entry): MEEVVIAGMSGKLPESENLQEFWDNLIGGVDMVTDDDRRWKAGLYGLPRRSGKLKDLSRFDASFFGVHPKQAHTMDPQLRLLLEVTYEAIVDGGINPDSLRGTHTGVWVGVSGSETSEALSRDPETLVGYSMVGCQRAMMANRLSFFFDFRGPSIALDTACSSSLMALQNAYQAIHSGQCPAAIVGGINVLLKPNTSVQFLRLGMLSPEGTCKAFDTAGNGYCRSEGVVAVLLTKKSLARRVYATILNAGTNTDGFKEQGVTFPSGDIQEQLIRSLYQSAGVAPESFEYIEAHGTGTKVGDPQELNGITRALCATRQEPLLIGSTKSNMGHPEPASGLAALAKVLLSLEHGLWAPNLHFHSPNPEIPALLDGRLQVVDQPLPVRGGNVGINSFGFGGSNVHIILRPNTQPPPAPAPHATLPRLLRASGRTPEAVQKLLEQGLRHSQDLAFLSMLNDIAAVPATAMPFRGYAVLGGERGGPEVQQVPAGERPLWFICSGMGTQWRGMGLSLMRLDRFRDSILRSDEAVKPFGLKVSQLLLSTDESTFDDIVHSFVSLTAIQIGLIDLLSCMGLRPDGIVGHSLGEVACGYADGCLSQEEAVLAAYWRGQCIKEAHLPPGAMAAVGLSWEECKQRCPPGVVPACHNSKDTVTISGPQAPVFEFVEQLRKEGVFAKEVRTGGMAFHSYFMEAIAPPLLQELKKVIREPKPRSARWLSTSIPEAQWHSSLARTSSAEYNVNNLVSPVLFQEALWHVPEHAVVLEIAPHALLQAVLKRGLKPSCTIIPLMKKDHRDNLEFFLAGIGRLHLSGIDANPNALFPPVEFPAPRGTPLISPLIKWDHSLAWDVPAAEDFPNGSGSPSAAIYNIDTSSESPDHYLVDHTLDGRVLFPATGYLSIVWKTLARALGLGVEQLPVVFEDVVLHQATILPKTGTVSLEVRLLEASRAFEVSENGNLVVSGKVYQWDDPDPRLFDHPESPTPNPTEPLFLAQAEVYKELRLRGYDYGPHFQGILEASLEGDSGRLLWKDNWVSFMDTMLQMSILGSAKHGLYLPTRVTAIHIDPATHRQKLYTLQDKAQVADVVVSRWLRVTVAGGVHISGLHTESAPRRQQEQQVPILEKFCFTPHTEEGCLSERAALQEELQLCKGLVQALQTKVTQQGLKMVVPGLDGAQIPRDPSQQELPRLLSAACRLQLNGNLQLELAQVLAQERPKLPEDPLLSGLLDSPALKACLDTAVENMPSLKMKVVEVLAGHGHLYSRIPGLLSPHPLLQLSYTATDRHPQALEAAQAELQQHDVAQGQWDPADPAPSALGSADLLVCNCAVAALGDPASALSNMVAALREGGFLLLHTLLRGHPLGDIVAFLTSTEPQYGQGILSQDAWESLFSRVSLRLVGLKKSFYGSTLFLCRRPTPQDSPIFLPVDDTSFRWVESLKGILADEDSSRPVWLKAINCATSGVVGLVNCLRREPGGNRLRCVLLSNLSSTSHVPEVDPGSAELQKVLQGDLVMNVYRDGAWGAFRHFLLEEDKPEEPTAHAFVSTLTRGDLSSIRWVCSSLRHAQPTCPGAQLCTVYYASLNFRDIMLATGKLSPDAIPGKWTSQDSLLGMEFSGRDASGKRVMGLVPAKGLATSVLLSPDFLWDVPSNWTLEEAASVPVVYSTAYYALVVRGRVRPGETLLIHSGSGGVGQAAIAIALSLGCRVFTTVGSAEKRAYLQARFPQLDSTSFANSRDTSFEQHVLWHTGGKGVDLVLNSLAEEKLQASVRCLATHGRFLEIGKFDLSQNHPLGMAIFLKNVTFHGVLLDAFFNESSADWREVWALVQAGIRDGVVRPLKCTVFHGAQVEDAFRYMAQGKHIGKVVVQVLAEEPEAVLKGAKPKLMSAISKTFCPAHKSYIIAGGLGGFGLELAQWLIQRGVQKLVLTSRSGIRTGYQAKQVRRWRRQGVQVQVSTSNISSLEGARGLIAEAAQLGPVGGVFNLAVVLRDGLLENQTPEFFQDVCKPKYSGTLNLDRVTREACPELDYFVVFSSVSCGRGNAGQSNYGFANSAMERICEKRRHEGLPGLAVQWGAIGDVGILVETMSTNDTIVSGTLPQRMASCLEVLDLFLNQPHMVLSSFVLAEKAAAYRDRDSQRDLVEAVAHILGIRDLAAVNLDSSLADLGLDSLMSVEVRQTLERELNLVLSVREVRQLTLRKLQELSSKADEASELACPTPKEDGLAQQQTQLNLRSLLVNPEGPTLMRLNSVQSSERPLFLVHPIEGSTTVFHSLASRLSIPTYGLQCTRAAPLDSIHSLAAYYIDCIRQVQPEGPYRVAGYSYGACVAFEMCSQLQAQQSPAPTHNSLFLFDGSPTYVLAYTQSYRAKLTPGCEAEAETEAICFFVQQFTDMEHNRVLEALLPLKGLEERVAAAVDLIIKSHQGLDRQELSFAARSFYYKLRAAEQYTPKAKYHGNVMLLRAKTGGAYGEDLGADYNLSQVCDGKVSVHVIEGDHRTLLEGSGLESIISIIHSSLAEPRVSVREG

A word on the IC50: it is the concentration that inhibits the measured activity by half. Read a high IC50 as a need for much substance. On to `CCN(C(=O)n1nnn(-c2ccccc2OC)c1=O)c1cc(C(=O)O)ccc1OCCc1ccccc1`, for which the IC50 was less than 15 nM.

Take `COc1ccc(N(C(=O)n2nnn(-c3ccccc3OC)c2=O)C(C)C)cc1C(=O)O`: the IC50 was 200 to 5000 nM. In the case of `CCN(C(=O)n1nnn(-c2ccccc2OC)c1=O)c1ccc(OC)c(C(=O)OCc2ccccc2)c1`, the IC50 was less than 15 nM. In the case of `CCN(C(=O)n1nnn(-c2ccccc2OC)c1=O)c1ccc(OC)cc1` it was 100 to 200 nM; in that of `COc1ccc(N(C(=O)n2nnn(-c3c(F)cccc3OC)c2=O)C2CCCC2)cc1C(=O)OCc1ccccc1`, less than 15 nM.

`COc1cccc(F)c1-n1nnn(C(=O)N(c2ccccc2)C2CCCCC2)c1=O`: the IC50 lay within 15 to 100 nM. `CCN(C(=O)n1nnn(-c2c(F)cccc2OC)c1=O)c1ccccc1OCCc1ccccc1` had an IC50 of less than 15 nM.

Take `CCN(C(=O)n1nnn(-c2c(F)cccc2OC)c1=O)c1ccc(C(=O)O)c(OC)c1`: the IC50 is 15 to 100 nM. Regarding `COc1ccc(COC(=O)c2cc(N(C(=O)n3nnn(-c4c(F)cccc4OC)c3=O)C(C)C)ccc2OCCc2ccccc2)cc1`, the IC50 is less than 15 nM. In turn, `COc1cccc(F)c1-n1nnn(C(=O)N(c2cccc(F)c2)C(C)(C)C)c1=O` yielded an IC50 of 200 to 5000 nM. In the case of `COc1ccc(N(C(=O)n2nnn(-c3c(F)cccc3OC)c2=O)C2CCCCC2)cc1C(=O)O` it was less than 15 nM; in that of `COc1cccc(F)c1-n1nnn(C(=O)N(c2cccc(C(=O)O)c2)C(C)C)c1=O`, 15 to 100 nM. `COc1ccc(C(=O)OCc2ccccc2)cc1N(C(=O)n1nnn(-c2c(F)cccc2OC)c1=O)C(C)C` yielded an IC50 of 15 to 100 nM.

`COc1ccc(C(=O)O)cc1N(C(=O)n1nnn(-c2c(F)cccc2OC)c1=O)C(C)C` returned an IC50 of less than 15 nM. As to `COc1cccc(F)c1-n1nnn(C(=O)N(CC(C)(C)C)c2cccc(C(=O)O)c2)c1=O`, the IC50 lay in the range of 200 to 5000 nM. `COc1cccc(F)c1-n1nnn(C(=O)N(c2ccccc2)C2CCCC2)c1=O` displayed an IC50 of less than 15 nM. `COc1cccc(F)c1-n1nnn(C(=O)N(c2ccc(OCCc3ccccc3)c(C(=O)O)c2)C(C)C)c1=O` had an IC50 of 15 to 100 nM.

On to `CCN(C(=O)n1nnn(-c2c(F)cccc2OC)c1=O)c1cc(C(=O)O)ccc1OC(C)C`, for which the IC50 lay within 15 to 100 nM. With `CCN(C(=O)n1nnn(-c2c(F)cccc2OC)c1=O)c1cc(Oc2ccc(C(=O)OCc3ccccc3)cc2)ccc1C`, the IC50 is 200 to 5000 nM. `CCN(C(=O)n1nnn(-c2c(F)cccc2OC)c1=O)c1cccc(Oc2cccc(C(=O)O)c2)c1` registered an IC50 of less than 15 nM. Regarding `COc1cccc(F)c1-n1nnn(C(=O)N(c2cccc(C(=O)O)c2)C(C)(C)C)c1=O`, the IC50 lay within 200 to 5000 nM. In the case of `CCN(C(=O)n1nnn(-c2c(F)cccc2OC)c1=O)c1cc(Oc2ccc(C(=O)O)cc2)ccc1C`, the IC50 is 15 to 100 nM. Regarding `COc1ccc(N(C(=O)n2nnn(-c3c(F)cccc3OC)c2=O)C(C)C)cc1C(=O)OCc1ccccc1`, the IC50 was less than 15 nM. `COc1ccc(N(C(=O)n2nnn(-c3c(F)cccc3OC)c2=O)C(C)C)cc1C(=O)O` yielded an IC50 of 15 to 100 nM.

Consider `COc1cccc(F)c1-n1nnn(C(=O)N(c2cccc(C(=O)OCc3ccccc3)c2)C2CC2)c1=O`, for which the IC50 is less than 15 nM. Regarding `CCN(C(=O)n1nnn(-c2c(F)cccc2OC)c1=O)c1cc(C(=O)O)ccc1OCCc1ccccc1`, the IC50 was less than 15 nM. Turning to `COc1cccc(F)c1-n1nnn(C(=O)N(c2ccccc2)C2CCOCC2)c1=O`, the IC50 was 15 to 100 nM. `CCCCOc1ccc(C(=O)O)cc1N(CC)C(=O)n1nnn(-c2c(F)cccc2OC)c1=O` came in with an IC50 of less than 15 nM. As to `COc1cccc(F)c1-n1nnn(C(=O)N(CC(C)(C)C)c2cccc(C(=O)OCc3ccccc3)c2)c1=O`, the IC50 lay in the range of 15 to 100 nM. Compound `COc1cccc(F)c1-n1nnn(C(=O)N(c2cccc(C(=O)OCc3ccccc3)c2)C(C)(C)C)c1=O` came in with an IC50 of 200 to 5000 nM. With `CCN(C(=O)n1nnn(-c2c(F)cccc2OC)c1=O)c1ccccc1` the figure was less than 15 nM; with `CCC(C)N(C(=O)n1nnn(-c2c(F)cccc2OC)c1=O)c1cccc(C(=O)OCc2ccccc2)c1` (stereo not drawn), less than 15 nM; with `COc1ccc(C(=O)O)cc1N(C(=O)n1nnn(-c2c(F)cccc2OC)c1=O)C1CCCCC1`, less than 15 nM.

On to `COCCOc1ccc(N(C(=O)n2nnn(-c3c(F)cccc3OCCOC)c2=O)C2CCCCC2)cc1C(=O)O`, for which the IC50 was in the range of 15 to 100 nM. `COCCOc1cccc(F)c1-n1nnn(C(=O)N(c2ccc(OC)c(C(=O)O)c2)C2CCCCC2)c1=O` showed an IC50 of less than 15 nM.

Regarding `COc1ccc(N(C(=O)n2nnn(-c3c(F)cccc3OCC(OC)OC)c2=O)C2CCCCC2)cc1C(=O)O`, the IC50 is less than 15 nM. Consider `COc1ccc(N(C(=O)n2nnn(-c3c(F)cccc3OC(C)C)c2=O)C2CCCCC2)cc1C(=O)O`, for which the IC50 was less than 15 nM. On to `COc1ccc(C(=O)O)cc1N(C(=O)n1nnn(-c2c(F)cccc2OC(C)C)c1=O)C1CCCCC1`, for which the IC50 fell in the range of 15 to 100 nM.

Regarding `COc1ccc(C(=O)OCc2ccccc2)cc1N(C(=O)n1nnn(-c2c(F)cccc2OC(C)C)c1=O)C1CCCCC1`, the IC50 lay within 15 to 100 nM. On to `COc1ccc(N(C(=O)n2nnn(-c3c(F)cccc3C(=O)O)c2=O)C(C)C)cc1C(=O)OCc1ccccc1`, for which the IC50 was 15 to 100 nM. Take `CCN(C(=O)n1nnn(-c2c(F)cccc2C(=O)N2CCOCC2)c1=O)c1ccccc1Oc1ccccc1`: the IC50 fell in the range of 200 to 5000 nM. `COc1ccc(N(C(=O)n2nnn(-c3c(F)cccc3C(=O)N3CCOCC3)c2=O)C(C)C)cc1C(=O)OCc1ccccc1` displayed an IC50 of less than 15 nM. Take `COc1ccc(N(C(=O)n2nnn(-c3c(F)cccc3C(=O)N3CCOCC3)c2=O)C(C)C)cc1C(=O)O`: the IC50 lay within 200 to 5000 nM. `COc1ccc(N(C(=O)n2nnn(-c3c(F)cccc3C(=O)N3CCCCC3)c2=O)C(C)C)cc1C(=O)OCc1ccccc1` came in with an IC50 of less than 15 nM. `COc1ccc(N(C(=O)n2nnn(-c3c(F)cccc3C(=O)N3CCCCC3)c2=O)C(C)C)cc1C(=O)O` yielded an IC50 of 15 to 100 nM. In turn, `CCN(C(=O)n1nnn(-c2c(F)cccc2C(=O)N2CCCCC2)c1=O)c1ccccc1Oc1ccccc1` registered an IC50 of 100 to 200 nM. In turn, `CCN(C(=O)n1nnn(-c2c(F)cccc2C(=O)NCc2ccccc2)c1=O)c1ccccc1` displayed an IC50 of less than 15 nM.

`CCN(C(=O)n1nnn(-c2c(F)cccc2C(=O)NCc2ccccc2)c1=O)c1ccccc1Oc1ccccc1` had an IC50 of 15 to 100 nM. With `COc1ccc(N(C(=O)n2nnn(-c3c(F)cccc3C(=O)N(C)Cc3ccccc3)c2=O)C(C)C)cc1C(=O)O` the figure was less than 15 nM.

As to `COc1ccc(N(C(=O)n2nnn(-c3c(F)cccc3C(=O)N(C)Cc3ccccc3)c2=O)C(C)C)cc1C(=O)OCc1ccccc1`, the IC50 is less than 15 nM. Consider `COc1ccc(N(C(=O)n2nnn(-c3c(F)cccc3C(=O)N(C)c3ccccc3)c2=O)C(C)C)cc1C(=O)O`, for which the IC50 lay within 15 to 100 nM. The compound `COc1ccc(N(C(=O)n2nnn(-c3c(F)cccc3C(=O)N(C)C)c2=O)C(C)C)cc1C(=O)O` showed an IC50 of 200 to 5000 nM. Compound `COc1ccc(N(C(=O)n2nnn(-c3c(F)cccc3C(=O)N(C)C)c2=O)C(C)C)cc1C(=O)OCc1ccccc1` showed an IC50 of less than 15 nM. `COc1ccc(N(C(=O)n2nnn(-c3c(F)cccc3N3CCOCC3)c2=O)C2CCCCC2)cc1C(=O)O` returned an IC50 of 15 to 100 nM. For the compound `COc1ccc(COC(=O)c2cc(N(C(=O)n3nnn(-c4cccc5nsnc45)c3=O)C3CCCCC3)ccc2OC)cc1`, the IC50 was less than 15 nM. In the case of `COc1ccc(N(C(=O)n2nnn(-c3cccc4nsnc34)c2=O)C2CCCCC2)cc1C(=O)O` it was 15 to 100 nM; in that of `COc1ccc(N(C(=O)n2nnn(-c3cccc(N)c3N)c2=O)C2CCCCC2)cc1C(=O)O`, 15 to 100 nM.
